# Results from article PMC11302339, “A series of pyrimidine-based antifungals with anti-mold activity disrupt ER function in Aspergillus fumigatus” (Microbiology Spectrum, 2024).
# Read-outs that look alike come from different tables or passages of the source.
# Assays:
# [1] = Pharmacokinetics in mice (serum/plasma and brain); format: in vivo, CD-1 mice; details: single 10 mg/kg intraperitoneal; for Cmax / half-life: female, CD-1, mouse, ip, CD1 mice; for half-life: read-out: half-life (T1/2)
# Method: Twenty-one female CD-1 mice were dosed intraperitoneally with 10 mg/kg 1. Whole blood was collected in a syringe coated with ACD. Plasma was processed from whole blood by centrifugation at 10,000 rpm for 10 min. Brain tissue was harvested and gently washed with 1× PBS to remove residual circulating blood. The tissue was weighed and snap frozen in liquid nitrogen.
# For the standards and quality controls, 98.0 and 98.8 µL of blank vendor plasma were added to a microfuge tube and spiked with 2.0 and 1.2 µL of initial standard. Standards, quality controls, and samples of 100 µL were then precipitated with 200 µL of methanol containing 0.15% formic acid and […]. The samples were vortexed 15 s, incubated at room temperature for 10 min, and centrifuged at 13,200 rpm twice in a standard microcentrifuge. The supernatant was then analyzed by LC-MS/MS. The vendor supplied the plasma used in standards and quality controls (QCs; lot # MSE460968, ACD anti-coagulant; Bioreclamation, LLC).
# Brain tissues were homogenized in 3× volume of PBS. For the standards and quality control samples, 98.0 and 98.8 µL of pooled blank brain were added to a microfuge tube and spiked with 2.0 or 1.2 µL of initial standard. Standards, quality control samples of 100 µL, were then precipitated with 200 µL of methanol containing 0.15% formic acid and 12.5 ng/mL IS (final concentrations). The samples were vortexed for 15 s, incubated at room temperature for 10 min, and centrifuged at 13,200 rpm twice in a standard microcentrifuge. The supernatant was then analyzed by LC-MS/MS.
# C. albicans = assay: MIC testing (CLSI broth dilution); format: cell-based, Candida albicans
# Method: MICs were determined using Clinical and Laboratory Standards Institute guidelines ([48], [49]). All yeasts were cultured overnight in 3 mL YPD at 30°C, then washed twice in sterile phosphate-buffered saline (PBS). Twofold serial dilutions of each drug were prepared in RMPI + MOPS, then 1 × 10^3 cells were added per well. For mold species, wells were inoculated with 1.25 × 10^3 conidia per well. Plates were incubated at 37°C for 24 (Candida spp. and S. cerevisiae), 48 (Aspergillus spp., M. circinelloides, S. apiospermum, and L. prolificans), or 72 (C. neoformans and F. oxysporum) hours. S. cerevisiae BY4743 MICs were tested in YPD due to nutritional requirements of this strain. Each assay was performed in technical duplicate in at least two independent experiments performed on different days.
# [2] = tested on: Saccharomyces cerevisiae BY4741; assay: Generation of resistant isolates (serial passaging); format: cell-based; details: from 1/4 MIC, twofold increases, at least 50 generations
# Method: (§1) Finally, we attempted to generate resistant isolates to understand the rate of resistance and potentially uncover mechanism of action. First, to determine spontaneous rates, we performed high-density plating (~2 × 10^9 cells) of C. neoformans on YPD plates containing 64 µg/mL 1 ([24]). […] Next, we employed serial passaging of both C. neoformans H99 and Saccharomyces cerevisiae BY4741 to evaluate evolved resistance upon exposure to sub-MIC concentrations. Yeast cells were grown in a 96-well format in the presence of 1/4 MIC 1, then cultures were passaged to fresh media containing a twofold increase in drug concentration. At each passage, the inoculum was diluted ~1:100 to allow ~10 generations of growth for a total of at least 50 generations over the course of the experiment.
# [3] = tested on: C. neoformans MAPK mutants; assay: C. neoformans competition assay with MAPK mutants; format: cell-based, Cryptococcus neoformans; details: 1.5 µg/mL 1, 24 hours, 37°C
# Method: H99-mNeon and MAPK mutants (obtained from the C. neoformans kinase deletion collection, FGSC) were grown overnight in YPD at 30°C then washed in PBS. Each strain was counted and diluted into 96-well plates such that each well contained 1 × 10^3 CFU/strain with 1.5 µg/mL 1 or DMSO in 100 µL total volume. Plates were incubated at 37°C for 24 hours before analyzing on an Attune NxT Flow Cytometer with CytKick autosampler and Attune Cytometric software. Gating strategy was optimized for single cells as previously described ([50]). mNeonGreen positive and negative populations were identified by histogram plot with 100,000 cells counted per sample. Data represent mean and SD of biological triplicate and are representative of two independent experiments.
# C. neoformans H99 = assay: Generation of resistant isolates (high-density plating, serial passaging); format: cell-based, Cryptococcus neoformans
# Method: as §1
# Hog1 = assay: Western blotting for total and phosphorylated Hog1; format: cell-based, Cryptococcus neoformans
# Method: C. neoformans H99 overnight cultures were diluted to OD = 0.1 in YPD and incubated at 30°C for 3 hours with shaking. Cultures were split into four subcultures and treated with DMSO or 1 µg/mL 1 (two each) for 2 hours at 30°C, then water or 1 M NaCl was added to one culture of each treatment and incubated for an additional 30 min at 30°C. Cell pellets were snap frozen and stored at −80°C. Protein was extracted in extraction buffer (10 mM HEPES, pH 7.4–7.9, 1.5 mM MgCl2, 10 mM KCl, 1 mM DTT, 1× HALT protease and phosphatase inhibitor cocktail) by bead beading for 30 s on 60 s off with incubation on ice five times. The supernatant was removed from glass beads, and protein concentration was quantified by Bradford protein assay. Twenty micrograms of protein was loaded on a 10% SDS-PAGE gel and run at 80 V. Samples were transferred to nitrocellulose membrane for 1 hour at 100 V, then the membrane was stained with Ponceau for 15 min at RT. Membranes were blocked with 5% bovine serum albumin (BSA) in Tris-buffered saline with Tween 20 (TBST) for 1 hour at room temperature, then incubated with 1:10,000 rabbit anti-p-p38 (Phospho-p38 MAPK, # 9211; Cell Signaling) in 5% BSA/TBST or 1:5,000 custom Hog1 antibody # R02361 (GenScript) overnight at 4°C. […]
smiles,measurement,setting,value
OC1CC(c2cc(N3CCC(CCc4ccccc4)CC3)ncn2)C1 (stereo not shown) [compound 1],time of Cmax post-administration,[1]; brain tissue,10 min
same,Cmax,[1]; brain tissue,2000 ng/g
same,half-life,[1]; brain tissue,4.92 h
same,Cmax,[1]; serum/plasma,491 ng/mL
same,half-life,[1]; serum/plasma,0.383 h
same,time of Cmax post-administration,[1]; serum,10 min
same,blood-brain barrier penetration,[1]; mice,penetrated the blood-brain barrier
same,MIC,"C. albicans; Candida albicans, strain SC5314, CLSI conditions, 24 h, read-out: MIC",64 µg/mL
same,MIC,"C. albicans; Candida albicans, strain not named, read-out: MIC",64 µg/mL
same,MIC,"C. albicans; strain TWO7241, azole-resistant clinical isolate, CLSI conditions",64 µg/mL
same,MIC,"C. albicans; strain TWO7243, azole-resistant clinical isolate, CLSI conditions",64 µg/mL
same,"evolved resistance, serial passaging",[2],did not recover stable resistance
same,reduction of mutant in competition with H99-GFP,[3]; ∆hog1,20%
same,reduction of mutant in competition with H99-GFP,[3]; ∆pbs2,60%
same,reduction of mutant in competition with H99-GFP,[3]; ∆ssk2,63%
same,"evolved resistance, serial passaging","C. neoformans H99; from 1/4 MIC, twofold increases, at least 50 generations",did not recover stable resistance
same,"spontaneous resistance, high-density plating",C. neoformans H99; ~2 × 10^9 cells on YPD with 64 µg/mL 1,unable to isolate resistant colonies
same,Hog1 phosphorylation,Hog1; 1 µg/mL 1 alone for 2 hours at 30°C,activation of Hog1 via phosphorylation
same,"Hog1 phosphorylation, combination with salt","Hog1; 1 µg/mL 1 for 2 hours, then 1 M NaCl 30 min",additive
